Measurements taken from DBAASP.
In brackets after ≈: the same amount, converted by molar mass. Several values for one entry are separate records, joined by “and”; a condition that tells them apart may be missing. Identical values can stand only once.

Columns and labels:
Test in all cases: ≥ marks a high value that may be exact or a test limit, other limits are often not marked, values filed in µg/mL are converted to µM
[1] = tested on: Staphylococcus aureus ATCC 27660
[2] = tested on: Pseudomonas aeruginosa ATCC 10145
[3] = tested on: Salmonella enterica subsp. enterica serovar Typhimurium ATCC 700931
Escherichia coli D31 = tested on: Escherichia coli D31
[4] = tested on: Staphylococcus epidermidis ATCC 14990
[5] = tested on: Escherichia coli ATCC 25922
[6] = tested on: Enterococcus faecalis PCM 2673
[7] = tested on: Pseudomonas aeruginosa ATCC 9027
[8] = tested on: Staphylococcus aureus ATCC 25923
[9] = tested on: Candida albicans ATCC 10231
[10] = tested on: Xanthomonas oryzae pv. oryzae MAFF 311018
[11] = tested on: Pyricularia oryzae MAFF 101511
[12] = tested on: Clavibacter michiganensis subsp. michiganensis MAFF 301254
[13] = tested on: Micrococcus luteus ATCC 49732
[14] = tested on: Aeromonas hydrophila ATCC 35654
[15] = tested on: Staphylococcus aureus ATCC 29213
[16] = tested on: Escherichia coli ATCC 11229
[17] = tested on: Salmonella enterica serovar Typhimurium
[18] = tested on: Pseudomonas aeruginosa ATCC 27853
[19] = tested on: Staphylococcus aureus ATCC 33591
[20] = tested on: Staphylococcus epidermidis ATCC 12228
[21] = tested on: Klebsiella pneumoniae ATCC 13866
[22] = tested on: Escherichia coli ATCC 35218
[23] = tested on: Klebsiella pneumoniae E406-17
[24] = tested on: Staphylococcus aureus M838-17
[25] = tested on: Pseudomonas aeruginosa E411-17
[26] = tested on: Candida tropicalis DSM 11953
[27] = tested on: Candida parapsilosis PMC 0711
[28] = tested on: Trichophyton mentagrophytes PMC 6529
[29] = tested on: Candida glabrata PMC 0805
Candida krusei PMC 0610 = tested on: Candida krusei PMC 0610
[30] = tested on: Aspergillus terreus PMC 7201
[31] = tested on: Microsporum canis DSM 10708
[32] = tested on: Trichophyton mentagrophytes PMC 6528
[33] = tested on: Aspergillus brasiliensis DSM 1988
[34] = tested on: Cryptococcus neoformans DSM 11759
[35] = tested on: Candida parapsilosis DSM 11224
[36] = tested on: Candida albicans ATCC 24433
[37] = tested on: Trichophyton mentagrophytes PMC 6530
[38] = tested on: Aspergillus niger PMC 7101
Candida krusei PMC 0624 = tested on: Candida krusei PMC 0624
[39] = tested on: Trichophyton mentagrophytes DSM 4870
[40] = tested on: Corynebacterium jeikeium ATCC BAA-949

For `CC[C@H](C)[C@H](NC(=O)[C@H](C)N)C(=O)N[C@@H](Cc1c[nH]c2ccccc12)C(=O)N[C@@H](CCCCN)C(=O)N[C@@H](CCCCN)C(=O)N[C@H](C(=O)N[C@H](C(=O)N[C@@H](CCCCN)C(=O)N[C@@H](CCCCN)C(=O)N[C@H](C(=O)N[C@H](C(=O)N[C@@H](CCCCN)C(=O)N[C@@H](CO)C(=O)N[C@@H](C)C(=O)N[C@@H](CCCCN)C(=O)N[C@@H](CCCCN)C(=O)N[C@H](C(=O)NCC(=O)O)[C@@H](C)CC)[C@@H](C)CC)[C@@H](C)CC)[C@@H](C)CC)[C@@H](C)CC` [AIWKKIIKKIIKSAKKIG], the MIC [1] was 1.88 µM (≈ 3.89 µg/mL), the MIC [2] was 1.88 µM (≈ 3.89 µg/mL) and the MIC [3] was 1.88 µM (≈ 3.89 µg/mL). It also gave an MIC (Escherichia coli D31) of 0.94 µM (≈ 1.94 µg/mL) and an MIC [4] of 0.94 µM (≈ 1.94 µg/mL).

With `CC[C@H](C)[C@H](NC(=O)[C@H](CCCCN)NC(=O)[C@H](CCCCN)NC(=O)[C@@H](NC(=O)[C@@H](NC(=O)[C@H](CC(=O)O)NC(=O)[C@H](Cc1ccccc1)NC(=O)[C@H](CC(C)C)NC(=O)CN)[C@@H](C)CC)[C@@H](C)CC)C(=O)N[C@@H](C)C(=O)N[C@@H](CCC(=O)O)C(=O)N[C@@H](C)C(=O)N[C@@H](Cc1ccccc1)C(N)=O` [GLFDIIKKIAEAF] the MIC [5] was 43.7 µM (≈ 64 µg/mL), the MIC [6] was no less than 43.7 µM and the MIC [7] was greater than 350 µM. The MIC [8] was 21.8 µM (≈ 32 µg/mL) and the MIC [9] was 21.8 µM (≈ 32 µg/mL).

For `CC[C@H](C)[C@H](NC(=O)[C@@H](N)Cc1ccccc1)C(=O)N[C@@H](Cc1ccccc1)C(=O)N[C@@H](CC(C)C)C(=O)N1CCC[C@H]1C(=O)N[C@H](C(=O)N[C@@H](Cc1ccccc1)C(=O)N[C@@H](CCCN=C(N)N)C(=O)N[C@@H](CCCN=C(N)N)C(=O)N1CCC[C@H]1C(=O)N[C@H](C(=O)N[C@@H](CO)C(N)=O)C(C)C)[C@@H](C)CC` [FIFLPIFRRPVS], the MIC [10] was no less than 85.8 µM, the MIC [11] was no less than 85.8 µM and the MIC [12] was 10.7 µM (≈ 16 µg/mL).

Work on `CC[C@H](C)[C@H](NC(=O)[C@H](CC(C)C)NC(=O)[C@H](CCC(N)=O)NC(=O)[C@@H](NC(=O)[C@H](CCCCN)NC(=O)[C@@H](NC(=O)[C@H](CS)NC(=O)[C@H](CCCCN)NC(=O)[C@@H](N)CCCN=C(N)N)C(C)C)C(C)C)C(=O)N[C@@H](CCCCN)C(=O)N[C@@H](CC(N)=O)C(=O)NCC(=O)N[C@@H](CCCN=C(N)N)C(=O)N[C@@H](CCC(N)=O)C(=O)N[C@H](C(=O)N[C@H](C(=O)N[C@@H](C)C(=O)N[C@@H](Cc1ccccc1)C(N)=O)[C@@H](C)O)C(C)C` [RKCVKVQLIKNGRQVTAF] yielded an MIC [5] of 12 µM (≈ 25.1 µg/mL), an MIC [8] greater than 20 µM and an MIC [13] of 7.2 µM (≈ 15 µg/mL). It also gave an MIC [14] of 20 µM (≈ 41.8 µg/mL).

Work on `CC[C@H](C)[C@H](NC(=O)[C@H](C)NC(=O)[C@H](CCCN=C(N)N)NC(=O)[C@H](CC(C)C)NC(=O)[C@@H](NC(=O)[C@H](CO)NC(=O)CN)C(C)C)C(=O)N[C@@H](CCSC)C(=O)N[C@@H](CCCN=C(N)N)C(=O)N[C@@H](CCSC)C(=O)N[C@@H](Cc1ccccc1)C(=O)N[C@@H](C)C(=O)N[C@@H](CCCCN)C(=O)N[C@@H](CC(C)C)C(=O)N[C@@H](CCSC)C(=O)NCC(=O)O` [GSVLRAIMRMFAKLMG] yielded an MIC [15] of 35.9 µM (≈ 64 µg/mL), an MIC [16] of no less than 35.9 µM and an MIC [17] of no less than 35.9 µM. It also gave an MIC [18] of 18 µM (≈ 32 µg/mL), an MIC [19] of 4.49 µM (≈ 8 µg/mL) and an MIC [20] of 4.49 µM (≈ 8 µg/mL). For the same compound, the MIC [8] was 35.9 µM (≈ 64 µg/mL), the MIC [21] was no less than 35.9 µM and the MIC [22] was no less than 35.9 µM.

For `C[C@H](NC(=O)[C@H](Cc1c[nH]c2ccccc12)NC(=O)[C@H](Cc1c[nH]c2ccccc12)NC(=O)[C@H](Cc1c[nH]c2ccccc12)NC(=O)[C@H](Cc1c[nH]c2ccccc12)NC(=O)[C@H](CCCN=C(N)N)NC(=O)[C@H](CCCN=C(N)N)NC(=O)[C@@H](N)CCCN=C(N)N)C(N)=O` [RRRWWWWA], the MIC [23] was no less than 50 µM, the MIC [24] was 12.5 µM (≈ 16.3 µg/mL) and the MIC [25] was 25 µM (≈ 32.5 µg/mL).

For `CC[C@H](C)[C@H](NC(=O)CNC(=O)[C@H](CC(N)=O)NC(=O)[C@H](CC(C)C)NC(=O)[C@@H](NC(=O)[C@H](CCCN=C(N)N)NC(=O)CNC(=O)[C@@H](NC(=O)[C@@H](NC(=O)[C@@H]1CCCN1C(=O)[C@H](Cc1ccccc1)NC(=O)[C@@H](N)Cc1ccccc1)C(C)C)[C@@H](C)CC)[C@@H](C)CC)C(=O)N[C@@H](CC(C)C)C(N)=O` [FFPVIGRILNGIL], the MIC [26] was 16 µM (≈ 23.3 µg/mL), the MIC [27] was no less than 128 µM and the MIC [28] was no less than 32 µM. The MIC [29] was no less than 64 µM, the MIC (Candida krusei PMC 0610) was no less than 128 µM and the MIC [30] was no less than 128 µM. It also gave an MIC [31] of no less than 64 µM, an MIC [32] of no less than 32 µM and an MIC [33] of no less than 128 µM. For the same compound, the MIC [34] was no less than 32 µM, the MIC [35] was no less than 128 µM and the MIC [36] was no less than 32 µM. For the same compound, the MIC [37] was no less than 64 µM, the MIC [9] was 16 µM and 21.3 µM and the MIC [38] was no less than 128 µM. It also gave an MIC (Candida krusei PMC 0624) of no less than 32 µM, an MIC [39] of 16 µM (≈ 23.3 µg/mL) and an MIC [40] of 16 µM (≈ 23.3 µg/mL).
